Data from US10131652B2, “Pyrimidinyloxy benzene derivatives as herbicides” (E. I. DU PONT DE NEMOURS AND COMPANY, priority 2014, dated 2018).

What was measured:
Assay type in all cases: in vivo
[1] = test system: barnyardgrass (Echinochloa crus-galli); assay: Test B pre-/postemergence plant response
Summary of the method: (§1)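 Visual injury rating, 0 (no effect) to 100 (complete control), vs untreated controls after ~10 d greenhouse. Pre: directed soil spray after planting in loam/sand. Post: plants 2–10 cm, 1–2 leaf stage. Compound in non-phytotoxic solvent plus surfactant.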

corn (Zea mays) = assay: Test B pre-/postemergence plant response
Summary of the method: as §1

[2] = test system: giant foxtail (Setaria faberii); assay: Test B pre-/postemergence plant response
Summary of the method: as §1

[3] = test system: pigweed (Amaranthus retroflexus); assay: Test B pre-/postemergence plant response
Summary of the method: as §1

[4] = test system: wheat (Triticum aestivum); assay: Test B pre-/postemergence plant response
Summary of the method: as §1

[5] = test system: barnyardgrass (Echinochloa crus-galli); assay: Test C flooded paddy test plant response; details: Flood, 250 g ai/ha; scale of 0 to 100 where 0 is no effect and 100 is complete control; 13 to 15 days
Summary of the method: (§2)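 Plants grown to 2-leaf stage, flooded 3 cm above soil; compounds applied directly into paddy water, depth kept throughout. Visual rating versus controls after 13 to 15 days in greenhouse, 0 (no effect) to 100 (complete control).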

[6] = test system: ducksalad (Heteranthera limosa); assay: Test C flooded paddy test plant response; details: Flood, 250 g ai/ha; scale of 0 to 100 where 0 is no effect and 100 is complete control; 13 to 15 days
Summary of the method: as §2

rice (Oryza sativa) = assay: Test C flooded paddy test plant response; details: Flood, 250 g ai/ha; scale of 0 to 100 where 0 is no effect and 100 is complete control; 13 to 15 days
Summary of the method: as §2

[7] = test system: small-flower umbrella sedge (Cyperus difformis); assay: Test C flooded paddy test plant response; details: Flood, 250 g ai/ha; scale of 0 to 100 where 0 is no effect and 100 is complete control; 13 to 15 days
Summary of the method: as §2

[8] = test system: blackgrass (Alopecurus myosuroides); assay: Test D pre-/postemergence plant response; details: Postemergence; for Blackgrass plant response rating: scale 0 to 100 (0 no effect, 100 complete control); for Plant response rating, Blackgrass: scale 0 to 100, 0 no effect, 100 complete control
Summary of the method: (§3)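 Seeds sown in loam–sand blend got preemergence sprays of test chemicals in a non-phytotoxic solvent with surfactant; postemergence sprays went on plants at 1- to 4-leaf stage (2 to 18 cm) in peat/vermiculite medium. After 13 to 15 days in greenhouse, visual injury versus controls scored 0 (no effect) to 100 (complete control).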

[9] = test system: galium (catchweed bedstraw, Galium aparine); assay: Test D pre-/postemergence plant response; details: Postemergence; for Galium plant response rating: 31 g ai/ha, scale 0 to 100 (0 no effect, 100 complete control); for Plant response rating, Galium: scale 0 to 100, 0 no effect, 100 complete control
Summary of the method: as §3

[10] = test system: johnsongrass (Sorghum halepense); assay: Test D pre-/postemergence plant response; details: Postemergence; for Johnsongrass plant response rating: 31 g ai/ha, scale 0 to 100 (0 no effect, 100 complete control); for Plant response rating, Johnsongrass: scale 0 to 100, 0 no effect, 100 complete control
Summary of the method: as §3

[11] = test system: lambsquarters (Chenopodium album); assay: Test D pre-/postemergence plant response; details: Postemergence; for Lambsquarters plant response rating: 31 g ai/ha, scale 0 to 100 (0 no effect, 100 complete control); for Plant response rating, Lambsquarters: scale 0 to 100, 0 no effect, 100 complete control
Summary of the method: as §3

[12] = test system: large (Lg) crabgrass (Digitaria sanguinalis); assay: Test D pre-/postemergence plant response; details: Postemergence; for Crabgrass, Large plant response rating: scale 0 to 100 (0 no effect, 100 complete control); for Plant response rating, Crabgrass, Large: scale 0 to 100, 0 no effect, 100 complete control
Summary of the method: as §3

[13] = test system: velvetleaf (Abutilon theophrasti); assay: Test D pre-/postemergence plant response; details: Postemergence; for Velvetleaf plant response rating: 31 g ai/ha, scale 0 to 100 (0 no effect, 100 complete control); for Plant response rating, Velvetleaf: scale 0 to 100, 0 no effect, 100 complete control
Summary of the method: as §3

[14] = test system: winter wheat (Triticum aestivum); assay: Test D pre-/postemergence plant response; details: Postemergence; for Wheat plant response rating: 31 g ai/ha, scale 0 to 100 (0 no effect, 100 complete control); for Plant response rating, Wheat: scale 0 to 100, 0 no effect, 100 complete control
Summary of the method: as §3

[15] = 125 g ai/ha, postemergence, 0 to 100 scale, 0 no effect, 100 complete control
[16] = Postemergence, 500 g ai/ha, 0 to 100 scale (0 no effect, 100 complete control)
[17] = Preemergence, 125 g ai/ha, 0 to 100 scale (0 no effect, 100 complete control)
[18] = Preemergence, 500 g ai/ha, 0 to 100 scale where 0 is no effect and 100 is complete control

FC(F)(F)c1cc(-c2c(Cl)cccc2Oc2ncc(Cl)cn2)no1 [Compound 169]
Plant response rating, Barnyardgrass [1, 15]: 10
Plant response rating, Barnyardgrass [1, 16]: 30
Barnyardgrass plant response rating [1, 17]: 20
Plant response rating, Barnyardgrass [1, 18]: 30
Plant response rating, Corn (corn (Zea mays); [15]): 10
Plant response rating, Corn (corn (Zea mays); [16]): 20
Plant response rating, Foxtail, Giant [2, 15]: 30
Plant response rating, Foxtail, Giant [2, 16]: 60
Foxtail, Giant plant response rating [2, 17]: 50
Plant response rating, Foxtail, Giant [2, 18]: 90
Plant response rating, Pigweed [3, 15]: 100
Plant response rating, Pigweed [3, 16]: 100
Pigweed plant response rating [3, 17]: 100
Plant response rating, Pigweed [3, 18]: 100
Plant response rating, Wheat [4, 15]: 0
Plant response rating, Wheat [4, 16]: 0
Barnyardgrass plant response rating [5]: 0
Ducksalad plant response rating [6]: 0
Rice plant response rating (rice (Oryza sativa)): 0
Sedge, Umbrella plant response rating [7]: 0
Blackgrass plant response rating ([8]; 16 g ai/ha): 0
Blackgrass plant response rating ([8]; 31 g ai/ha): 0
Plant response rating, Blackgrass ([8]; 62 g ai/ha): 0
Plant response rating, Blackgrass ([8]; 125 g ai/ha): 25
Galium plant response rating [9]: 70
Plant response rating, Galium ([9]; 62 g ai/ha): 70
Plant response rating, Galium ([9]; 125 g ai/ha): 75
Johnsongrass plant response rating [10]: 0
Plant response rating, Johnsongrass ([10]; 62 g ai/ha): 0
Plant response rating, Johnsongrass ([10]; 125 g ai/ha): 5
Lambsquarters plant response rating [11]: 40
Plant response rating, Lambsquarters ([11]; 62 g ai/ha): 35
Plant response rating, Lambsquarters ([11]; 125 g ai/ha): 80
Crabgrass, Large plant response rating ([12]; 16 g ai/ha): 5
Crabgrass, Large plant response rating ([12]; 31 g ai/ha): 5
Plant response rating, Crabgrass, Large ([12]; 62 g ai/ha): 10
Plant response rating, Crabgrass, Large ([12]; 125 g ai/ha): 10
Velvetleaf plant response rating [13]: 10
Plant response rating, Velvetleaf ([13]; 62 g ai/ha): 20
Plant response rating, Velvetleaf ([13]; 125 g ai/ha): 30
Wheat plant response rating [14]: 5
Plant response rating, Wheat ([14]; 62 g ai/ha): 10
Plant response rating, Wheat ([14]; 125 g ai/ha): 10

FC(F)(F)c1cc(-c2c(Br)cccc2Oc2ncc(Cl)cn2)no1 [Compound 170]
Plant response rating, Barnyardgrass [1, 15]: 0
Plant response rating, Barnyardgrass [1, 16]: 20
Barnyardgrass plant response rating [1, 17]: 0
Plant response rating, Barnyardgrass [1, 18]: 20
Plant response rating, Corn (corn (Zea mays); [15]): 20
Plant response rating, Corn (corn (Zea mays); [16]): 20
Plant response rating, Foxtail, Giant [2, 15]: 30
Plant response rating, Foxtail, Giant [2, 16]: 50
Foxtail, Giant plant response rating [2, 17]: 60
Plant response rating, Foxtail, Giant [2, 18]: 90
Plant response rating, Pigweed [3, 15]: 100
Plant response rating, Pigweed [3, 16]: 100
Pigweed plant response rating [3, 17]: 100
Plant response rating, Pigweed [3, 18]: 100
Plant response rating, Wheat [4, 15]: 0
Plant response rating, Wheat [4, 16]: 30
Barnyardgrass plant response rating [5]: 0
Ducksalad plant response rating [6]: 0
Rice plant response rating (rice (Oryza sativa)): 0
Sedge, Umbrella plant response rating [7]: 0
Blackgrass plant response rating ([8]; 16 g ai/ha): 0
Blackgrass plant response rating ([8]; 31 g ai/ha): 0
Plant response rating, Blackgrass ([8]; 62 g ai/ha): 5
Plant response rating, Blackgrass ([8]; 125 g ai/ha): 5
Galium plant response rating [9]: 50
Plant response rating, Galium ([9]; 62 g ai/ha): 65
Plant response rating, Galium ([9]; 125 g ai/ha): 80
Johnsongrass plant response rating [10]: 0
Plant response rating, Johnsongrass ([10]; 62 g ai/ha): 0
Plant response rating, Johnsongrass ([10]; 125 g ai/ha): 5
Lambsquarters plant response rating [11]: 40
Plant response rating, Lambsquarters ([11]; 62 g ai/ha): 40
Plant response rating, Lambsquarters ([11]; 125 g ai/ha): 80
Crabgrass, Large plant response rating ([12]; 16 g ai/ha): 5
Crabgrass, Large plant response rating ([12]; 31 g ai/ha): 5
Plant response rating, Crabgrass, Large ([12]; 62 g ai/ha): 5
Plant response rating, Crabgrass, Large ([12]; 125 g ai/ha): 10
Velvetleaf plant response rating [13]: 5
Plant response rating, Velvetleaf ([13]; 62 g ai/ha): 25
Plant response rating, Velvetleaf ([13]; 125 g ai/ha): 25
Wheat plant response rating [14]: 20
Plant response rating, Wheat ([14]; 62 g ai/ha): 10
Plant response rating, Wheat ([14]; 125 g ai/ha): 15
